Common to all, as to type: cell-based
In test [1] the target is Sodium-dependent serotonin transporter (Homo sapiens) (UniProt P31645). Put plainly: Inhibition of human SERT expressed in HEK293 cells using 4-[4-(Dimethylamino)phenyl]-1-methyl pyridinium as substrate assessed as fluorescent intensity at 10 uM after 3 hrs relative to control.
The target is the same in test [2]. Description: Inhibition of human SERT expressed in HEK293 cells using 4-[4-(Dimethylamino)phenyl]-1-methyl pyridinium as substrate assessed as fluorescent intensity at 1 uM after 3 hrs relative to control.
Test [3] has the same target. Description: Inhibition of human SERT expressed in HEK293 cells using 4-[4-(Dimethylamino)phenyl]-1-methyl pyridinium as substrate assessed as fluorescent intensity at 0.1 uM after 3 hrs relative to control.

Chain of Sodium-dependent serotonin transporter (Homo sapiens) (P31645 whole entry, looked up): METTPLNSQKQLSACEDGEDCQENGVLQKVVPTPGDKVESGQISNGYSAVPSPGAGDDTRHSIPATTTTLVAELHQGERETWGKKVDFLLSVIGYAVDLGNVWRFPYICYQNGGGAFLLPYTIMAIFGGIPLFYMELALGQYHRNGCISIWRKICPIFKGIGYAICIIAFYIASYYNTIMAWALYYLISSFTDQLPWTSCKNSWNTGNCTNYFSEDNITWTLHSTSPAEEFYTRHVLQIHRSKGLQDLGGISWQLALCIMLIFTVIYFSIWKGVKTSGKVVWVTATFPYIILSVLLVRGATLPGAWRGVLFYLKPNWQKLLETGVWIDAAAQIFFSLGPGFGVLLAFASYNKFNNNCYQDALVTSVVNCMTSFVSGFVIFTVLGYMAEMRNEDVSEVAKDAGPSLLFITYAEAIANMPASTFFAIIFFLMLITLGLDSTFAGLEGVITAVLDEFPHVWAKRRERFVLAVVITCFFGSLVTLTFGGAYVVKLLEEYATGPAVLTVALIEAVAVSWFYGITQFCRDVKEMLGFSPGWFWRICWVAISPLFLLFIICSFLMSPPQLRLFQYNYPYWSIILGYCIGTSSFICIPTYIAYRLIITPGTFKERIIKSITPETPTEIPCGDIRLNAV

Regarding `COc1cc([C@@H]2Oc3c(OC)cc(C(=O)O)cc3[C@H]2CO)ccc1O`, the RFU in test [1] was found to be 1.06; in test [2], 1.03; in test [3], 0.984.

In the case of `CN1c2ccccc2C(NCCCCCCC(=O)O)c2ccc(Cl)cc2S1(=O)=O` (centres undefined), the RFU in test [2] was 1.11.

As to `COC(=O)CCCNC(=O)/C=C\c1ccc(O)c(OC)c1`, the RFU in test [1] was determined as 1.06; in test [2] it was 1.08; in test [3], 1.04.

As for `COc1cc(C[C@@H](CO)c2cc(C(=O)O)cc(OC)c2O)ccc1O`, the figures for the RFU in test [1], in test [2] and in test [3] were 0.873, 0.997 and 1.01, respectively.

For `CC(C)C[C@]12C[C@]3(O)O[C@@]1(OC(=O)C[C@H]2C)[C@H](O)[C@]3(C)O`, the values for the RFU in test [1], in test [2] and in test [3] were 0.928, 0.883 and 0.858, respectively.

Consider `COC(=O)CCCNC(=O)/C=C/c1ccc(O)c(OC)c1`, for which the figures for the RFU in test [1], in test [2] and in test [3] were 1.04, 1.07 and 1.02, respectively.

Take `COc1cc([C@H]2Oc3c(OC)cc(C(=O)O)cc3[C@@H]2CO)ccc1O`: the results for the RFU in test [1], in test [2] and in test [3] were 1.09, 1.01 and 1.04, respectively.
